According to patent US20260376293A1, “METHODS FOR STUDYING GPR158 PHARMACOLOGY AND IDENTIFICATION OF ITS LIGANDS” (UNIVERSITY OF FLORIDA RESEARCH FOUNDATION, INCORPORATED, priority 2022, published 2026):

Legend:
GPR158 Y269A mutant = target: T1, GPR158 Y269A mutant (Homo sapiens, UniProt Q5T848, Y269A); assay: Radioligand binding assay on GPR158 mutant Y269A
T1 sequence (Q5T848 24-1215 Y269A): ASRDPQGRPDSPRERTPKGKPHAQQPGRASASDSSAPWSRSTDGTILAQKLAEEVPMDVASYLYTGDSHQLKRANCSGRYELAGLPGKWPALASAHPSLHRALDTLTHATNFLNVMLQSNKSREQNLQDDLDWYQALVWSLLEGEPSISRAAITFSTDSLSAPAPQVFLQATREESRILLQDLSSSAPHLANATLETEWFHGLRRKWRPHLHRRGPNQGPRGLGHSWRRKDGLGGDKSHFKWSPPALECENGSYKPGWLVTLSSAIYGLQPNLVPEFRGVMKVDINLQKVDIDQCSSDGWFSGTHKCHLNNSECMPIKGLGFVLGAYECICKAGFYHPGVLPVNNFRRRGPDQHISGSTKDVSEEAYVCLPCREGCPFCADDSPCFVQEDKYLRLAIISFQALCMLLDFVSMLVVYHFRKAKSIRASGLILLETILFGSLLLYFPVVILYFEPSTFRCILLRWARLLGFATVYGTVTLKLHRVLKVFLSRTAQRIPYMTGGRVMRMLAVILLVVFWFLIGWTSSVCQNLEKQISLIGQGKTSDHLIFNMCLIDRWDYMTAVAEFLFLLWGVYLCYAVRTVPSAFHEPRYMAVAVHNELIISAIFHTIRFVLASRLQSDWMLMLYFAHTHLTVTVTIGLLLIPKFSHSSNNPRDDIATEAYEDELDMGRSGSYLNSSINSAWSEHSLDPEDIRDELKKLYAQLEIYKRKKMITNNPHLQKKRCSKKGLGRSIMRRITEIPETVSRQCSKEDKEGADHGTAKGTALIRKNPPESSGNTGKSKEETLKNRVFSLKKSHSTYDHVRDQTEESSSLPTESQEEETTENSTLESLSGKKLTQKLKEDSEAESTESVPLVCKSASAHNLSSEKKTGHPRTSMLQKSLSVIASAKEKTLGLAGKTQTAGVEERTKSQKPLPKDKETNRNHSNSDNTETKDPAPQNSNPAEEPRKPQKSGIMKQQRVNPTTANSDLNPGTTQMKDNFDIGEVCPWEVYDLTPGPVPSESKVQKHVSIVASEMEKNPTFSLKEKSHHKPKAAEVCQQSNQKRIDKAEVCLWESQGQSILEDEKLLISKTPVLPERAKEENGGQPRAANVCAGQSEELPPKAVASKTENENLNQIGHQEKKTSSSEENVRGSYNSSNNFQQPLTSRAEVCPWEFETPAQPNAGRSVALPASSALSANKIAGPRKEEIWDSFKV
Source text: FIGS. 11A-11G. Probing Cache domain of GPR158 as a ligand binding site A) Computational docking of glycine into putative ligand binding pocket on GPR158 Cache domain. Glycine and directly interacting residues are shown as sticks. Hydrogen bonds and van der Waals interactions are shown as dotted lines. B) Diagram showing interactions in the docked model of glycine against GPR158 Cache domain. Hydrogen bonds are shown as dashed lines, van der Waals interactions are shown as intersecting semicircles, and the secondary structural context of Ser266 and Tyr269 is shown as an arc. Dagger indicates a residue implicated in glycine binding in 11A. C) Radioligand binding assay of ^3H-glycine in cells expressing GPR158 mutants. Data shown mean±s.e.m. of 3 independent experiments, *p<0.05, ns=p>0.05 one-way ANOVA. D) Functional evaluation of GPR158 mutants in GAP BRET assay. Error bars are mean±s.e.m. of 3 independent experiments in triplicate. *p<0.05, **p<0.01, ***p<0.001, ****p<0.0001, ns=p>0.05, two-way ANOVA Columns with no fill (Ctrl), columns with angled-line fill (Glycine) E) Quantification of glycine inhibitory effect on kGAP normalized to the effect seen with WT receptor. […]
Whole cell binding was performed using cDNA of GPR158-venus or each GPR158-venus mutant or empty pcDNA3.1+ for ctrl cells. […] Finally radioactivity was measured using the liquid scintillation analyzer Tri-Carb 4910 TR.

[1] = tested on: stress-induced depressive rat; details: cited from earlier work

SMILES	[^3H]-glycine binding (GPR158 Y269A mutant)	antidepressant effect [1]
NCC(=O)O [^3H-glycine, [^3H]-glycine]	near complete loss	
NCCS(=O)(=O)O [taurine, 2-aminoethanesulfonic acid]		antidepressant effect
